In ChEMBL document CHEMBL1201862, “PubChem BioAssay data set” (2004):
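In this assay, cells in 96-well plates receive the compound at five concentrations for 48 hours. Endpoints are linearly interpolated between the surrounding concentrations. Abbreviation: GI50, concentration required for 50% inhibition of growth.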 Active and inactive are the calls of the source. Cut-off read from the data, not from the text of the source: active = GI50 up to about 1.1 µM and inactive = higher.

Legend:
Assay in all cases: NCI-60 cell line screen, 48 h
SNB-78 = system: SNB-78
DMS-273 = system: DMS-273
DMS-114 = system: DMS-114
LXFL 529 = system: LXFL 529
DLD-1 = system: DLD-1
KM-20L2 = system: KM-20L2
HOP-18 = system: HOP-18
RXF 631 = system: RXF 631
XF498 = system: XF498

Measured: GI50

CSc1cnc2ccccc2c1Sc1c[nH]c2ccccc2c1=O
inactive: SNB-78 57.3 µM | DMS-273 8.38 µM | DMS-114 5.7 µM | LXFL 529 8.67 µM | DLD-1 11.7 µM | KM-20L2 4.42 µM | HOP-18 14.9 µM

CC(=O)CC(=O)CCCC(=O)Nc1ccc(Cl)cc1C
inactive: SNB-78 > 100 µM | RXF 631 > 100 µM | DMS-273 > 100 µM | DMS-114 > 100 µM | LXFL 529 > 100 µM | DLD-1 > 100 µM | KM-20L2 > 100 µM | HOP-18 > 100 µM

c1ccc2cc(-c3cc4ccccc4s3)ccc2c1
inactive: XF498 > 100 µM | SNB-78 > 100 µM | DMS-273 > 100 µM | DMS-114 > 100 µM | DLD-1 > 100 µM | KM-20L2 > 100 µM | HOP-18 > 100 µM

COc1ccc(Br)c(CCCCC(=O)O)c1
inactive: XF498 > 100 µM | SNB-78 > 100 µM | DMS-273 > 100 µM | DMS-114 > 100 µM | LXFL 529 > 100 µM | DLD-1 > 100 µM | KM-20L2 > 100 µM | HOP-18 > 100 µM

CCn1c(O)c(C(=O)Nc2cccs2)c(=O)n(CC)c1=S
inactive: SNB-78 17.8 µM | RXF 631 19 µM | DMS-114 15.4 µM | LXFL 529 14.9 µM | DLD-1 33.3 µM | KM-20L2 17.7 µM

COC1/C(=C\C(C)=O)c2ccccc2N1C(C)=O (stereo not drawn)
inactive: XF498 > 100 µM | RXF 631 > 100 µM | DMS-273 > 100 µM | LXFL 529 > 100 µM | DLD-1 > 100 µM | KM-20L2 > 100 µM | HOP-18 > 100 µM

COc1ccc(/C(Cl)=C/c2ccc(Cl)c(Cl)c2)cc1
inactive: XF498 22.4 µM | SNB-78 23.6 µM | DMS-273 24.4 µM | DMS-114 16.6 µM | LXFL 529 33.8 µM | DLD-1 25.9 µM | KM-20L2 22.8 µM | HOP-18 16.5 µM

CCOC(=O)C/C(=N\c1cc(C)on1)N(CC)CC.[O-][Cl+3]([O-])([O-])O
inactive: XF498 > 100 µM | SNB-78 > 100 µM | DMS-273 > 100 µM | DMS-114 > 100 µM | LXFL 529 > 100 µM | DLD-1 > 100 µM | KM-20L2 > 100 µM

O=[N+]([O-])c1cc2c(cc1O)[nH]c1cccc([N+](=O)[O-])c12
inactive: XF498 > 100 µM | SNB-78 > 100 µM | DMS-273 > 100 µM | DMS-114 > 100 µM | DLD-1 > 100 µM | HOP-18 33.9 µM

COC(=O)Cc1cc(=O)[nH]c2c1C(=O)CCC2
inactive: XF498 > 100 µM | LXFL 529 > 100 µM | DLD-1 > 100 µM | HOP-18 > 100 µM

CCC(=O)c1cn(C)c(=O)c2ccccc12
inactive: XF498 > 100 µM | SNB-78 > 100 µM | RXF 631 > 100 µM | DMS-273 > 100 µM | DMS-114 > 100 µM | LXFL 529 > 100 µM | DLD-1 > 100 µM | KM-20L2 > 100 µM

COc1ccc(/C(Cl)=C(\C=O)c2cc(OC)c(OC)c(OC)c2)cc1OC
inactive: SNB-78 16.8 µM | RXF 631 19.7 µM | DMS-273 35.8 µM | DMS-114 12.1 µM | LXFL 529 11.2 µM | KM-20L2 22.8 µM | HOP-18 12.2 µM

c1ccc2c(CNCCCN3CCN(CCCNCc4cccc5ccccc45)CC3)cccc2c1
inactive: XF498 1.77 µM | SNB-78 2.21 µM | RXF 631 1.13 µM | DMS-273 1.97 µM | DMS-114 2 µM | LXFL 529 1.77 µM | DLD-1 1.75 µM | KM-20L2 1.7 µM | HOP-18 6.21 µM

CC1(SCC(N)C(=O)O)CC(=O)NC1=O (stereo not drawn)
inactive: SNB-78 > 100 µM | DMS-273 > 100 µM | DMS-114 > 100 µM | LXFL 529 > 100 µM | KM-20L2 > 100 µM

NC1=NC(=O)C(CC(=O)Nc2ccc([N+](=O)[O-])cc2[N+](=O)[O-])S1 (stereo not drawn)
inactive: XF498 > 100 µM | SNB-78 > 100 µM | RXF 631 > 100 µM | DMS-114 > 100 µM | LXFL 529 > 100 µM | DLD-1 > 100 µM | KM-20L2 > 100 µM | HOP-18 52 µM

COc1ccc2c(C(=O)O)cc3cc(OC)c(OC)cc3c2c1
inactive: XF498 > 100 µM | SNB-78 > 100 µM | RXF 631 > 100 µM | DMS-273 > 100 µM | LXFL 529 > 100 µM | DLD-1 > 100 µM | KM-20L2 > 100 µM | HOP-18 > 100 µM

COc1ccc2c(c1)[n+]([O-])c(C(N)=O)c(N)[n+]2[O-]
inactive: SNB-78 > 100 µM | RXF 631 34 µM | DMS-273 71.9 µM | DMS-114 35.6 µM | LXFL 529 66.4 µM | DLD-1 > 100 µM | KM-20L2 37.2 µM | HOP-18 > 100 µM

Cc1ccc(C(=O)O/N=C2/CCCCC2CN(C)C)cc1 (stereo not drawn)
inactive: SNB-78 > 100 µM | RXF 631 > 100 µM | DMS-273 > 100 µM | DMS-114 > 100 µM | LXFL 529 > 100 µM | DLD-1 > 100 µM | KM-20L2 > 100 µM | HOP-18 > 100 µM

C1CN(c2nnc(N3CCC3)nn2)C1
inactive: XF498 22.2 µM | SNB-78 57.4 µM | RXF 631 > 10 µM | DMS-273 > 43.2 µM | DMS-114 21.3 µM | LXFL 529 21.3 µM | DLD-1 > 100 µM | KM-20L2 > 44.8 µM | HOP-18 > 100 µM

COc1ccc(NC(=O)CC(=O)n2nc(-c3ccccc3)c(/N=N/c3ccccc3C(=O)O)c2-c2ccccc2)cc1
inactive: RXF 631 > 100 µM | DMS-273 > 100 µM | DMS-114 > 100 µM | LXFL 529 > 100 µM | DLD-1 > 100 µM | KM-20L2 > 100 µM

O=[N+]([O-])c1ccc(/C=C/c2ccc(/C=C/c3ccc([N+](=O)[O-])cc3[N+](=O)[O-])cc2)c([N+](=O)[O-])c1
inactive: XF498 > 100 µM | SNB-78 > 100 µM | DMS-273 > 100 µM | DMS-114 > 100 µM | LXFL 529 > 100 µM | DLD-1 > 100 µM | KM-20L2 > 100 µM

O=C(CC1(O)C(=O)Nc2ccccc21)c1ccco1 (stereo not drawn)
inactive: XF498 > 100 µM | SNB-78 > 100 µM | DMS-273 > 100 µM | DMS-114 > 100 µM | LXFL 529 > 100 µM | DLD-1 > 100 µM | KM-20L2 > 100 µM

Nc1nc(SCc2ccccc2Cl)c2ncn(C3OC(CO)C(O)C3O)c2n1 (stereo not drawn)
inactive: DMS-273 65.6 µM | DMS-114 43.5 µM | LXFL 529 50.9 µM | DLD-1 > 100 µM | KM-20L2 > 100 µM | HOP-18 > 100 µM

N#Cc1c(NN)nc(NN)c(C#N)c1-c1ccccc1
inactive: XF498 > 100 µM | SNB-78 > 100 µM | RXF 631 > 100 µM | DMS-273 > 100 µM | DMS-114 > 100 µM | LXFL 529 > 100 µM | DLD-1 > 100 µM | KM-20L2 > 100 µM | HOP-18 > 100 µM
